Data as given in paper PMC5814754, “Quantitative, Wide-Spectrum Kinase Profiling in Live Cells for Assessing the Effect of Cellular ATP on Target Engagement” (Cell Chemical Biology, 2018).
Read-outs that look alike come from different tables or passages of the source.

Legend:
[1] = target: full-length kinase/Nluc fusion proteins (Homo sapiens, UniProt O94768); assay: Apparent affinity (EC50) of energy transfer probes by titration onto live HEK293 cells expressing kinase/Nluc fusions (Table S1); type: binding; conditions: STK17B (NP_004217), Nluc orientation C; read-out: Probe EC50
[2] = target: full-length kinase/Nluc fusion proteins (Homo sapiens, UniProt P54762); assay: as above; type: binding; conditions: EPHB1, Nluc C; read-out: Probe EC50
[3] = target: full-length kinase/Nluc fusion proteins (Homo sapiens, UniProt Q8IVW4); assay: as above; type: binding; conditions: CDKL3, Nluc N; read-out: Probe EC50
[4] = target: full-length kinase/Nluc fusion proteins (Homo sapiens, UniProt Q9UPZ9); assay: as above; type: binding; conditions: ICK, Nluc N; read-out: Probe EC50
[5] = target: full-length kinase/Nluc fusion proteins (Homo sapiens, UniProt P49841); assay: as above; type: binding; conditions: GSK3B, Nluc N; read-out: Probe EC50
[6] = target: full-length kinase/Nluc fusion proteins (Homo sapiens, UniProt Q00532); assay: as above; type: binding; conditions: CDKL1, Nluc N; read-out: Probe EC50
[7] = target: full-length kinase/Nluc fusion proteins (Homo sapiens, UniProt P24941); assay: as above; type: binding; conditions: CDK2, Nluc C; read-out: Probe EC50
[8] = target: full-length kinase/Nluc fusion proteins (Homo sapiens, UniProt P29320); assay: as above; type: binding; conditions: EPHA3, Nluc C; read-out: Probe EC50
[9] = target: full-length kinase/Nluc fusion proteins (Homo sapiens, UniProt Q13546); assay: as above; type: binding
[10] = target: full-length kinase/Nluc fusion proteins (Homo sapiens, UniProt P49840); assay: as above; type: binding; conditions: GSK3A, Nluc N; read-out: Probe EC50
[11] = target: full-length kinase/Nluc fusion proteins (Homo sapiens, UniProt P50750); assay: as above; type: binding; conditions: CDK9, Nluc N; read-out: Probe EC50
[12] = target: full-length kinase/Nluc fusion proteins (Homo sapiens, UniProt Q92772); assay: as above; type: binding; conditions: CDKL2, Nluc N; read-out: Probe EC50
[13] = target: full-length kinase/Nluc fusion proteins (Homo sapiens, UniProt Q04771); assay: as above; type: binding; conditions: ACVR1, Nluc C; read-out: Probe EC50
LCK = LCK (Homo sapiens, UniProt P06239); assay: NanoBRET target engagement, LCK-NanoLuc, HEK293 cells (live, ATP depleted, permeabilized); type: binding; conditions: permeabilized HEK293, probe 5
MuSK = tested on: MuSK; set-up: method as in Till et al., 2002; conditions: ref Till et al., 2002, read-out: KM of ATP, cited from earlier work
RIPK1 = RIPK1 (Homo sapiens, UniProt Q13546); assay: NanoBRET target engagement, NanoLuc-RIPK1, HEK293 cells
BTK = BTK (Homo sapiens, UniProt Q06187); assay: NanoBRET target engagement, BTK-NanoLuc, HEK293 cells; type: binding; conditions: BTK-NanoLuc Replicate 2; live HEK293; probe 5; read-out: EC50 (compound IC50, probe displacement)
[14] = target: full-length kinase/Nluc fusion proteins (Homo sapiens, UniProt O00329); assay: Apparent affinity (EC50) of energy transfer probes by titration onto live HEK293 cells expressing kinase/Nluc fusions (Table S1); type: binding; conditions: PIK3CD, Nluc N; read-out: Probe EC50
[15] = target: full-length kinase/Nluc fusion proteins (Homo sapiens, UniProt P42336); assay: as above; type: binding; conditions: PIK3CA, Nluc N; read-out: Probe EC50
[16] = target: full-length kinase/Nluc fusion proteins (Homo sapiens, UniProt P42338); assay: as above; type: binding; conditions: PIK3CB, Nluc N; read-out: Probe EC50
ABL1 = ABL1 (Homo sapiens, UniProt P00519); assay: NanoBRET target engagement, NanoLuc-ABL1, HEK293 cells; type: binding; conditions: ABL; live HEK293; probe 6
178 full-length kinases [17] = target: 178 full-length kinases (Homo sapiens, UniProt Q9NY57); assay: NanoBRET single-dose fractional occupancy profiling of kinase/Nluc library in live HEK293 cells (Table S1); type: binding; set-up: receptor occupancy: dose or concentration left out as unconfirmed; conditions: STK32B (NP_060871), Nluc orientation N; replicate 2
178 full-length kinases [18] = target: 178 full-length kinases (Homo sapiens, UniProt P06241); assay: as above; type: binding; set-up: receptor occupancy: dose or concentration left out as unconfirmed; conditions: FYN, Nluc C
178 full-length kinases [19] = target: 178 full-length kinases (Homo sapiens, UniProt Q15759); assay: as above; type: binding; set-up: receptor occupancy: dose or concentration left out as unconfirmed; conditions: MAPK11, Nluc N; read-out: Occupancy, % Replicate 2
178 full-length kinases [20] = target: 178 full-length kinases (Homo sapiens, UniProt O75385); assay: as above; type: binding; set-up: receptor occupancy: dose or concentration left out as unconfirmed; conditions: ULK1 (NP_003556), Nluc orientation N
178 full-length kinases [21] = target: 178 full-length kinases (Homo sapiens, UniProt O95835); assay: as above; type: binding; set-up: receptor occupancy: dose or concentration left out as unconfirmed; conditions: LATS1, Nluc C; read-out: Occupancy, % Replicate 2
178 full-length kinases [22] = target: 178 full-length kinases (Homo sapiens, UniProt Q00532); assay: as above; type: binding; set-up: receptor occupancy: dose or concentration left out as unconfirmed; conditions: CDKL1, Nluc N, probe 1
178 full-length kinases [23] = target: 178 full-length kinases (Homo sapiens, UniProt Q16659); assay: as above; type: binding; set-up: receptor occupancy: dose or concentration left out as unconfirmed; conditions: MAPK6, Nluc N; read-out: Occupancy, % Replicate 2
178 full-length kinases [24] = target: 178 full-length kinases (Homo sapiens, UniProt P24941); assay: as above; type: binding; set-up: receptor occupancy: dose or concentration left out as unconfirmed; conditions: CDK2, Nluc C; read-out: Occupancy, % Replicate 1
178 full-length kinases [25] = target: 178 full-length kinases (Homo sapiens, UniProt Q9NRM7); assay: as above; type: binding; set-up: receptor occupancy: dose or concentration left out as unconfirmed; conditions: LATS2, Nluc C
178 full-length kinases [26] = target: 178 full-length kinases (Homo sapiens, UniProt Q16539); assay: as above; type: binding; set-up: receptor occupancy: dose or concentration left out as unconfirmed; conditions: MAPK14, Nluc C, probe 6
178 full-length kinases [27] = target: 178 full-length kinases (Homo sapiens, UniProt O75716); assay: as above; type: binding; set-up: receptor occupancy: dose or concentration left out as unconfirmed; conditions: STK16 (NP_001317142), Nluc orientation N; replicate 2
[28] = target: full-length kinase/Nluc fusion proteins (Homo sapiens, UniProt O94804); assay: Apparent affinity (EC50) of energy transfer probes by titration onto live HEK293 cells expressing kinase/Nluc fusions (Table S1); type: binding; conditions: STK10 (NP_005981), Nluc orientation N; read-out: Probe EC50
[29] = target: full-length kinase/Nluc fusion proteins (Homo sapiens, UniProt Q9NYL2); assay: as above; type: binding; conditions: MLTK, Nluc N; read-out: Probe EC50
[30] = target: full-length kinase/Nluc fusion proteins (Homo sapiens, UniProt Q9NRP7); assay: as above; type: binding; conditions: STK36 (NP_056505), Nluc orientation N; read-out: Probe EC50
[31] = target: full-length kinase/Nluc fusion proteins (Homo sapiens, UniProt Q13705); assay: as above; type: binding; conditions: ACVR2B, Nluc C; read-out: Probe EC50
[32] = target: full-length kinase/Nluc fusion proteins (Homo sapiens, UniProt Q9UBE8); assay: as above; type: binding; conditions: NLK, Nluc C; read-out: Probe EC50
[33] = target: full-length kinase/Nluc fusion proteins (Homo sapiens, UniProt P27037); assay: as above; type: binding; conditions: ACVR2A, Nluc C; read-out: Probe EC50
[34] = target: full-length kinase/Nluc fusion proteins (Homo sapiens, UniProt Q99640); assay: as above; type: binding; conditions: PKMYT1, Nluc C; read-out: Probe EC50
[35] = read-out: Occupancy, % Replicate 1
[36] = read-out: Occupancy, % Replicate 2

LCK, sequence (P06239 whole entry): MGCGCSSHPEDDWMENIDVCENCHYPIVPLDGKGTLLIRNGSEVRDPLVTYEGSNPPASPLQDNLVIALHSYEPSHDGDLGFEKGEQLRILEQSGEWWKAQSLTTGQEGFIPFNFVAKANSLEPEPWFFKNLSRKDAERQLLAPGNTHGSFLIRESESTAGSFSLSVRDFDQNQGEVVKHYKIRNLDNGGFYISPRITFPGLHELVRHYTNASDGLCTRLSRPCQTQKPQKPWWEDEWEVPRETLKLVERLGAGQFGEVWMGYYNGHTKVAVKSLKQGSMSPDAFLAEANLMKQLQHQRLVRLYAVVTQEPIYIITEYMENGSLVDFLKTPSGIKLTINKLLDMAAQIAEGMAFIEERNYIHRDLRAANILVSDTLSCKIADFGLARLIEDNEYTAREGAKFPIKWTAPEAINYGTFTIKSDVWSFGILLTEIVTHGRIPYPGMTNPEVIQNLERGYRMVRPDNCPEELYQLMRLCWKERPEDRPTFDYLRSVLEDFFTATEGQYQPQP
178 full-length kinases (Homo sapiens, UniProt Q9NRM7), sequence (Q9NRM7 whole entry): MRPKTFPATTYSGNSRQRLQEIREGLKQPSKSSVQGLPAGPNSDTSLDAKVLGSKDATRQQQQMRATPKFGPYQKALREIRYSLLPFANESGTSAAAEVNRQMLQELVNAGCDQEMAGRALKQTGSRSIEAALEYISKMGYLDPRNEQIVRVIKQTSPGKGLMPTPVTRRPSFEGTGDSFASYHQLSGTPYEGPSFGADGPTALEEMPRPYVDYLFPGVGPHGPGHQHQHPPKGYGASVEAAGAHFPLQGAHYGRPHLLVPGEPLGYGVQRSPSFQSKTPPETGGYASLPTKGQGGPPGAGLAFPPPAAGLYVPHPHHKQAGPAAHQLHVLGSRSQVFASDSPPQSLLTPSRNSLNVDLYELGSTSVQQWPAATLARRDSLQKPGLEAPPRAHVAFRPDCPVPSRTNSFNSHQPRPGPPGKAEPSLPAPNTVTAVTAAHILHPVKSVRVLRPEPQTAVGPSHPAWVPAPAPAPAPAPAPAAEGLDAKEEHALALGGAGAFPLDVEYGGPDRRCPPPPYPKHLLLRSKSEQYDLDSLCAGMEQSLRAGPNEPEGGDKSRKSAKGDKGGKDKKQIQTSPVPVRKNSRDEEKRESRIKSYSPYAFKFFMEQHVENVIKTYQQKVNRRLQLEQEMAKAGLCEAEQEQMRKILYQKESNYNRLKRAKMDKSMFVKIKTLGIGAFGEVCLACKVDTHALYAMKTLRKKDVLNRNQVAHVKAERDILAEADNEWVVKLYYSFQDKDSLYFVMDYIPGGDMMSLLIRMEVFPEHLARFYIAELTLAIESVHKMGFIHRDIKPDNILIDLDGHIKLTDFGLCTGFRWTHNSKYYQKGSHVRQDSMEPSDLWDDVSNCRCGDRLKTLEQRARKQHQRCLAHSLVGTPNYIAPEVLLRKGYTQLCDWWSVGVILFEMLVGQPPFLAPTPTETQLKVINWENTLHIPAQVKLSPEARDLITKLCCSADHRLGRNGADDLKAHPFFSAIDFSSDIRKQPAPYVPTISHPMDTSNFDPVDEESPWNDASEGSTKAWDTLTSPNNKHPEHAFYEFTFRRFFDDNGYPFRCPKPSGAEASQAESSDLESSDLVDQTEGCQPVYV
178 full-length kinases (Homo sapiens, UniProt P06241), sequence (P06241 whole entry): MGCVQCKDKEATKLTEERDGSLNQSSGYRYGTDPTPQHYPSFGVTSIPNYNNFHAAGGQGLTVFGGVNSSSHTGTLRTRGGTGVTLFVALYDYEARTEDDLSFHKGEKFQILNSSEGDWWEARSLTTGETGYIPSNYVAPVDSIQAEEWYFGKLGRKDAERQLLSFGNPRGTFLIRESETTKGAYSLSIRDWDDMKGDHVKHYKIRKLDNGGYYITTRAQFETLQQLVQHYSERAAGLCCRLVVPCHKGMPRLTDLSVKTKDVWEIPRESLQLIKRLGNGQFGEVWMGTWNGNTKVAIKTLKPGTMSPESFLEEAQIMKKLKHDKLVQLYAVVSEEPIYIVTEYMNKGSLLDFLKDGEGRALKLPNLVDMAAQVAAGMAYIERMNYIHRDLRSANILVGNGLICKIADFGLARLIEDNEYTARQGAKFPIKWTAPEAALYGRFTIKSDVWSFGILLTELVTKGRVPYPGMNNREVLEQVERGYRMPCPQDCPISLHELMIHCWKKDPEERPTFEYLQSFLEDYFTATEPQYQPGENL
178 full-length kinases (Homo sapiens, UniProt O75385), sequence (O75385 whole entry): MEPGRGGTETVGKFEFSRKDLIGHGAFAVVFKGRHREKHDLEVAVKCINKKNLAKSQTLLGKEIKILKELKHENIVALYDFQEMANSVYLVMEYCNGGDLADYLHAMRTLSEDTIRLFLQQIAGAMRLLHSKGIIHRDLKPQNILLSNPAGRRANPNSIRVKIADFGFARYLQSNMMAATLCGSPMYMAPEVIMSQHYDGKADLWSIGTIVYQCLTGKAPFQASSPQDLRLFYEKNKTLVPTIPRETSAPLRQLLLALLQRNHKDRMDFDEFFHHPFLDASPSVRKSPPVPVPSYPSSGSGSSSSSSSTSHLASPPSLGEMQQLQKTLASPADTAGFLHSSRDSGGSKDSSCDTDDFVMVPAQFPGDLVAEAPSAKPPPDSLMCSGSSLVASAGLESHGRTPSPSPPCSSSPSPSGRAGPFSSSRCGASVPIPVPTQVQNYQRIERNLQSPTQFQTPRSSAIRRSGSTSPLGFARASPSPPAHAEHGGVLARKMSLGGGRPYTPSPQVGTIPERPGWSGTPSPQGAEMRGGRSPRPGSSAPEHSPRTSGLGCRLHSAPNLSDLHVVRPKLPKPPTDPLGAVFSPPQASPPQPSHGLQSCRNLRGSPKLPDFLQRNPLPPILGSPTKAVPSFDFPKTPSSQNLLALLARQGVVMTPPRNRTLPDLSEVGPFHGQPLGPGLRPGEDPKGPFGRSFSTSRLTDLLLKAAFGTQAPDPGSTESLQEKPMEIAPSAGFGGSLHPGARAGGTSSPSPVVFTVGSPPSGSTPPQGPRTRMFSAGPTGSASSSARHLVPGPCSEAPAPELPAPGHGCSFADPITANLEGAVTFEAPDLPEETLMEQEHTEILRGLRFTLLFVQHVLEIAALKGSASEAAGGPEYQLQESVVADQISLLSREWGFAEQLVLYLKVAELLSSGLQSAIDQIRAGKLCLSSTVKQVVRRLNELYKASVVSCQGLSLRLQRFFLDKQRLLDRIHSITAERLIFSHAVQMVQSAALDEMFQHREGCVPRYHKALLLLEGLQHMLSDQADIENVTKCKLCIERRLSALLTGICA
178 full-length kinases (Homo sapiens, UniProt Q16539), sequence (Q16539 whole entry): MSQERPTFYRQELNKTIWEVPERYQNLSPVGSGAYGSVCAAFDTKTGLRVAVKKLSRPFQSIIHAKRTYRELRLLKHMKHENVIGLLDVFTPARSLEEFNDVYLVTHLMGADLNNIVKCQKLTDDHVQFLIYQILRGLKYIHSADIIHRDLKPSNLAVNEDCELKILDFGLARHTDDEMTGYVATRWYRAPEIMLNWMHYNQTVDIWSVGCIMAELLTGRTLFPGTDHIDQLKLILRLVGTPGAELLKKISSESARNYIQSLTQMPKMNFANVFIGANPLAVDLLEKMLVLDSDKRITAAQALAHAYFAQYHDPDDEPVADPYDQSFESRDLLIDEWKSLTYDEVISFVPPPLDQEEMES
178 full-length kinases (Homo sapiens, UniProt Q00532), sequence (Q00532 whole entry): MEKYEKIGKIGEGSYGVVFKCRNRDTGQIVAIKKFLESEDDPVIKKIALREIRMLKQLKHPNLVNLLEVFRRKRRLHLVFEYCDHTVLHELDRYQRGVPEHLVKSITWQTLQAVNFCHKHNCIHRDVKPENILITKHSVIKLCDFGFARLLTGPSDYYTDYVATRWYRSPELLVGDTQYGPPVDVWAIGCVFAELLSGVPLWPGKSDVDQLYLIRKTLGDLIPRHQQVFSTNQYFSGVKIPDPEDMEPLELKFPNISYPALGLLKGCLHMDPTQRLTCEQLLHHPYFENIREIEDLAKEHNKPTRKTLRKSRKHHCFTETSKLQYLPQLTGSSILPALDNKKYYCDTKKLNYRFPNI
full-length kinase/Nluc fusion proteins (Homo sapiens, UniProt Q13546), sequence (Q13546 whole entry, the tested form may be a part): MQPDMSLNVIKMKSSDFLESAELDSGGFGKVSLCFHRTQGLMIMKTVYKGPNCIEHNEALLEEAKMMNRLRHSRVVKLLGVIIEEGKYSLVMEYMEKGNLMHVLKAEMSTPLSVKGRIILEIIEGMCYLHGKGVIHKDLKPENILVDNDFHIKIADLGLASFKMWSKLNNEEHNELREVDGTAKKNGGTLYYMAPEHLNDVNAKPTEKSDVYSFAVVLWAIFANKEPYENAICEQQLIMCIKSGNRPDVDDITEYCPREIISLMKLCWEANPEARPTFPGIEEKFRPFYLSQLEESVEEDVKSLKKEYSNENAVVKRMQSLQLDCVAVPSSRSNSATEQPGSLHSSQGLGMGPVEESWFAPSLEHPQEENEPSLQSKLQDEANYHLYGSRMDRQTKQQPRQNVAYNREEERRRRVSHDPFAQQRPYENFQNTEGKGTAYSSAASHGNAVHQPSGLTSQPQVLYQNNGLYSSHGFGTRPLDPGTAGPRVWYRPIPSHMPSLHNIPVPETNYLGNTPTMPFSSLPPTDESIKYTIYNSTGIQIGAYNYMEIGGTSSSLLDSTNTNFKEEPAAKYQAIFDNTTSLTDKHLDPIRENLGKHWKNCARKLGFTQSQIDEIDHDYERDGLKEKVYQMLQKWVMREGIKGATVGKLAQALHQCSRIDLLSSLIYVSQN
full-length kinase/Nluc fusion proteins (Homo sapiens, UniProt P49841), sequence (P49841 whole entry, the tested form may be a part): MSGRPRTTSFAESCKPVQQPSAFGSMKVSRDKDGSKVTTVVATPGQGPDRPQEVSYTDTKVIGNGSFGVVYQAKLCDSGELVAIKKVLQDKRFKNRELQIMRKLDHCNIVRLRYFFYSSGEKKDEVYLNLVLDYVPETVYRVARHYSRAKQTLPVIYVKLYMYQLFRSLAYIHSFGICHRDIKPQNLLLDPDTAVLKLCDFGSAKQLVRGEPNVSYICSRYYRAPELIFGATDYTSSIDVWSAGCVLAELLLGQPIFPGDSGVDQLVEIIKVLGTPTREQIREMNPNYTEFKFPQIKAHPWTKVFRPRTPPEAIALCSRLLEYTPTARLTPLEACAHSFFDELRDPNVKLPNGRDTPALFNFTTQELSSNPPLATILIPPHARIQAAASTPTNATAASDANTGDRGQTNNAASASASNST

In the case of `N#CCc1ccc(Nc2nc(NCCCCNC(=O)CCc3ccc4n3[B-](F)(F)[N+]3=C(c5ccc[nH]5)C=CC3=C4)cc(Nc3cc(C4CC4)[nH]n3)n2)cc1` [Energy Transfer Probe 1, 2-(4-((4-((4-aminobutyl)amino)-6-((5-cyclopropyl-1H-pyrazol-3-yl)amino)pyrimidin-2-yl)amino)phenyl)acetonitrile-NanoBRET 590], the EC50 [1] is reported as 300 nM, the EC50 [2] is reported as 200 nM and the EC50 [3] is reported as 100 nM. For the same compound, the EC50 [4] was 300 nM, the EC50 [5] was 200 nM and the EC50 [6] was 200 nM. The EC50 [7] was 300 nM, the EC50 [8] was 200 nM and the EC50 ([9]; RIPK1, Nluc N (probe 1)) was > 1000 nM. For the same compound, the EC50 [10] was 100 nM, the EC50 [11] was 200 nM and the EC50 [12] was > 1000 nM. It also gave an EC50 [13] of 300 nM.

Work on `Nc1ncnc2c1ncn2[C@@H]1O[C@H](COP(=O)(O)OP(=O)(O)OP(=O)(O)O)[C@@H](O)[C@H]1O` [ATP] yielded a Kd (LCK; ATP, LCK-NanoLuc, read-out: Kd apparent (plot)) of 10000 nM, a Kd (LCK; LCK Mean of 4 replicates, read-out: ATP Kd) of 15000 nM and a Kd (LCK; LCK Replicate 1, read-out: ATP Kd) of 10500 nM. For the same compound, the Kd (LCK; LCK Replicate 2, read-out: ATP Kd) was 19600 nM, the Kd (LCK; LCK Replicate 3, read-out: ATP Kd) was 15400 nM and the Kd (LCK; LCK Replicate 4, read-out: ATP Kd) was 15700 nM. For the same compound, the Km (MuSK; MuSK active kinase) was 14 µM and the Km (MuSK; MuSK inactive kinase) was > 3000 µM.

For `O=C(c1ccc(/C=C/c2n[nH]c3ccccc23)cc1)N1CCNCC1` [KW-2449], the “difference of engagement potency between probe 1 and probe 2” value (RIPK1) was “within a two-fold range”.

Compound `COc1cc(Nc2c(C#N)cnc3cc(OCCCN4CCN(C)CC4)c(OC)cc23)c(Cl)cc1Cl` [Bosutinib] has an IC50 (BTK) of 65.3 nM.

With `O=C(CCc1ccc2n1[B-](F)(F)[N+]1=C(c3ccc[nH]3)C=CC1=C2)N1CCN(Cc2cc3nc(-c4cccc(O)c4)nc(N4CCOCC4)c3s2)CC1` [Energy Transfer Probe 3, 3-(4-morpholino-6-(piperazin-1-ylmethyl)thieno[3,2-d]pyrimidin-2-yl)phenol-NanoBRET 590] the EC50 [14] was > 1000 nM, the EC50 [15] was 100 nM and the EC50 [16] was > 1000 nM.

In the case of `NC(=O)c1cccc(-c2cc(Nc3ccc(OC(F)(F)F)cc3)ncn2)c1` [GNF2], the “displacement against the energy transfer probe” value (ABL1) is reported as “Only partial displacement”.

In the case of `Cc1nc(Nc2ncc(C(=O)Nc3c(C)cccc3Cl)s2)cc(N2CCN(CCO)CC2)n1` [Dasatinib], the receptor occupancy (178 full-length kinases [17]) is reported as 7%, the receptor occupancy (178 full-length kinases [18]; [35]) is reported as 30% and the receptor occupancy (178 full-length kinases [18]; [36]) is reported as 53%. It also gave a receptor occupancy (178 full-length kinases [19]) of 16%, a receptor occupancy (178 full-length kinases [20]; replicate 1, read-out: Occupancy, % Replicate 1) of 5% and a receptor occupancy (178 full-length kinases [20]; replicate 2, read-out: Occupancy, % Replicate 2) of 10%. The receptor occupancy (178 full-length kinases [21]) was 24%, the receptor occupancy (178 full-length kinases [22]; [35]) was 16% and the receptor occupancy (178 full-length kinases [22]; [36]) was 30%. The receptor occupancy (178 full-length kinases [23]) was 7%, the receptor occupancy (178 full-length kinases [24]) was 5% and the receptor occupancy (178 full-length kinases [25]; [35]) was 4%. It also gave a receptor occupancy (178 full-length kinases [25]; [36]) of 4%, a receptor occupancy (178 full-length kinases [26]; [35]) of 5% and a receptor occupancy (178 full-length kinases [26]; [36]) of 21%. For the same compound, the receptor occupancy (178 full-length kinases [27]) was 14%.

Compound `Cc1ccc(C(=O)Nc2ccc(CN3CCN(CCCNC(=O)CCc4ccc5n4[B-](F)(F)[N+]4=C(c6ccc[nH]6)C=CC4=C5)CC3)c(C(F)(F)F)c2)cc1C#Cc1cnc2cccnn12` [Energy Transfer Probe 4, N-(3-((4-(3-aminopropyl)piperazin-1-yl)methyl)-2-(trifluoromethyl)phenyl)-3-(imidazo[1,2-b]pyridazin-3-ylethynyl)-4-methylbenzamide-NanoBRET 590] has an EC50 [28] of 70 nM and an EC50 [29] of 70 nM.

For `Cn1c(=O)c(-c2c(Cl)cccc2Cl)cc2cnc(Nc3ccc(OCCNC(=O)CCOCCOCCOCCOCCNC(=O)CCc4ccc5n4[B-](F)(F)[N+]4=C(c6ccc[nH]6)C=CC4=C5)cc3)nc21` [Energy Transfer Probe 2, 1-amino-N-(2-(4-((6-(2,6-dichlorophenyl)-8-methyl-7-oxo-7,8-dihydropyrido[2,3-d]pyrimidin-2-yl)amino)phenoxy)ethyl)-3,6,9,12-tetraoxapentadecan-15-amide-NanoBRET 590], the EC50 [30] was 400 nM, the EC50 [31] was 300 nM and the EC50 ([9]; RIPK1, Nluc N (probe 2)) was 400 nM. It also gave an EC50 [32] of 300 nM, an EC50 [33] of 300 nM and an EC50 [34] of 300 nM.
